Data: patent US9616107B2, “Therapy for kidney disease and/or heart failure” (priority 2011, dated 2017)
Where two headings read alike, the source gives them in different places. Ends that are not written are not given here.

Experiment: Toxicology study of VD in rats: 5-day continuous subcutaneous infusion by Alzet minipumps, plasma VD by radioimmunoassay, clinical observations
Format: in vivo
Conditions: for maximum tolerated dose for prolonged subcutaneous administration: expected; for Cmin: SC infusion 5 days
Method: VD was administered to a rat model via a subcutaneous delivery route to assess the toxicity of VD and to determine if a lethal dosing amount of the VD can be reached by subcutaneous administration. As noted above, a maximum tolerated or lethal dosing amount was not observed for canines.
VD-acetate (Bachem lot 2502022) was prepared in the Tris/Glycerin/m-cresol buffer at a concentration of 3 mg/mL or 15 mg/mL. The VD solution was administered continuously by subcutaneous infusion using Alzet® (Durect Corp.) osmotic minipumps (model 2002) over a period of 5 days to 3 study groups, where each study group (Groups 1-3) contained 3 male and 3 female Sprague Dawley rats.
The continuous subcutaneous delivery dose for Group 1 was calibrated to yield an administration of approximately 100 ng/(kg·min) of VD, which is in the range of a dosing regimen useful for clinical use in humans. […] However, an estimated body weight of 250 g was used for all animals (males and females) for reporting pharmacokinetic and toxicological calculations; therefore, the estimated daily dose is reported as 0.144 mg/kg·day (or 100 ng/(kg·min)) for all animals in Group 1, and the total dose delivered to each animal over the 5-day period was 0.180 mg.
The continuous subcutaneous delivery dose for Group 2 was calibrated to yield an administration of approximately 1000 ng/(kg·min) of VD, which is 10-fold higher than for Group 1. Each rat in Group 2 each had two Alzet pumps implanted to have a combined infusion rate was 1.0 μL/hr of the 15 mg/mL VD solution. The resulting actual mean weight-based doses were 1.026 and 1.629 mg/(kg·day) for males and females, respectively. For the pharmacokinetic calculations, an estimated body weight of 280 g was used for all animals (males and females); therefore, the estimated daily dose was reported as 1.29 mg/(kg·day) (or ˜896 ng/(kg·min)) for all animals in Group 2, and the total dose delivered to each animal over the 5 day period was 1.8 mg.
The continuous subcutaneous delivery dose for Group 3 was calibrated to yield an administration of approximately 2000 ng/(kg·min). Each rat each had four Alzet pumps implanted for a combined infusion rate was 2.0 μL/hr of the 15 mg/mL VD solution. The resulting actual mean weight-based doses were 1.870 and 3.303 mg/(kg·day) for males and females, respectively. For pharmacokinetic calculations, an estimated body weight of 300 g was used for all animals (males and females); therefore the estimated daily dose was reported as 2.4 mg/(kg·day) (or (or ˜1667 ng/(kg·min)) for all animals in Group 3, and the total dose delivered to each animal for the 5 day period was 3.6 mg. The dosing for Groups 1-3 is summarized in Table 5.
All animals in Groups 1-3 were observed twice daily for mortality and moribund appearance during the 5-day dosing period and during an at least 16-day pretest period. Clinical examinations were performed daily for all animals following surgery to implant the Alzet pumps. Detailed physical examinations were conducted on all animals approximately weekly during a pretest period of at least 16 days, prior to beginning dosing (Day 0), and on Day 5 prior to euthanasia. Individual body weights were recorded at least weekly during the pretest period, on Day 0 prior to dosing, and on Day 5 prior to euthanasia. Individual food consumption was recorded approximately weekly during the pretest period, on Day 0 prior to dosing, and on Day 5 prior to euthanasia. Blood samples for determination of plasma drug concentration were collected from all animals at approximately 4, 8, and 24 hours after pump implantation on Day 0 and immediately prior to euthanasia on Day 5 (120 hours after the start of dosing). Blood was collected via the retro-orbital sinus from animals anesthetized with isoflurane into chilled tubes containing K3-EDTA. Following the final blood collection, the animals were euthanized and discarded. […]

[1] = female, Sprague Dawley, rat, in vivo, sc, 0.18 mg
[2] = female, Sprague Dawley, rat, in vivo, sc, 1.8 mg
[3] = female, Sprague Dawley, rat, in vivo, sc, 3.6 mg

With “EVVPPQVLSEPNEEAGAALSPLPEVPPWTGEVSPAQR [VD, Vessel Dilator]” the level at 8 h (Sprague Dawley, rat, in vivo, sc, 0.18 mg total dose, male rats N=3, 0.180 mg, 8 hours post-dosing, read-out: Mean concentration of vessel dilator in plasma) was 11.9 ng/mL, the level at 4 h (Sprague Dawley, rat, in vivo, sc, 0.18 mg, male rats N=3, 0.180 mg, 4 hours post-dosing (from start of infusion), read-out: Mean concentration of vessel dilator in plasma) was 17.1 ng/mL and the level at 24 h (Sprague Dawley, rat, in vivo, sc, 0.18 mg, male rats N=3, 0.180 mg, 24 hours post-dosing, read-out: Mean concentration of vessel dilator in plasma) was 13.3 ng/mL. It also gave a level at 120 h (Sprague Dawley, rat, in vivo, sc, 0.18 mg, male rats N=3, 0.180 mg, 120 hours post-dosing, all samples, read-out: Mean concentration of vessel dilator in plasma) of 78.6 ng/mL, a level at 8 h (Sprague Dawley, rat, in vivo, sc, 1.8 mg total dose, male rats N=3, 1.80 mg, 8 hours post-dosing, read-out: Mean concentration of vessel dilator in plasma) of 204 ng/mL and a level at 4 h (Sprague Dawley, rat, in vivo, sc, 1.8 mg, male rats N=3, 1.80 mg, 4 hours post-dosing, read-out: Mean concentration of vessel dilator in plasma) of 62.3 ng/mL. For the same sequence, the level at 24 h (Sprague Dawley, rat, in vivo, sc, 1.8 mg, male rats N=3, 1.80 mg, 24 hours post-dosing, read-out: Mean concentration of vessel dilator in plasma) was 167 ng/mL, the level at 120 h (Sprague Dawley, rat, in vivo, sc, 1.8 mg, male rats N=3, 1.80 mg, 120 hours post-dosing, read-out: Mean concentration of vessel dilator in plasma) was 214 ng/mL and the level at 4 h (Sprague Dawley, rat, in vivo, sc, 3.6 mg, male rats N=3, 3.60 mg, 4 hours post-dosing, read-out: Mean concentration of vessel dilator in plasma) was 370 ng/mL. The level at 8 h (Sprague Dawley, rat, in vivo, sc, 3.6 mg, male rats N=3, 3.60 mg, 8 hours post-dosing, read-out: Mean concentration of vessel dilator in plasma) was 255 ng/mL, the level at 24 h (Sprague Dawley, rat, in vivo, sc, 3.6 mg, male rats N=3, 3.60 mg, 24 hours post-dosing, read-out: Mean concentration of vessel dilator in plasma) was 168 ng/mL and the level at 120 h (Sprague Dawley, rat, in vivo, sc, 3.6 mg, male rats N=3, 3.60 mg, 120 hours post-dosing, read-out: Mean concentration of vessel dilator in plasma) was 261 ng/mL. For the same sequence, the “maximum tolerated dose for prolonged subcutaneous administration” value (female rats) was over 2300 ng/kg·min, the level at 4 h [1] was 27.5 ng/mL and the level at 8 h [1] was 31.6 ng/mL. For the same sequence, the level at 24 h [1] was 33.2 ng/mL, the level at 120 h [1] was 27.1 ng/mL and the level at 4 h [2] was 135 ng/mL. For the same sequence, the level at 8 h [2] was 275 ng/mL, the level at 24 h [2] was 320 ng/mL and the level at 120 h [2] was 265 ng/mL. For the same sequence, the level at 4 h [3] was 725 ng/mL, the level at 8 h [3] was 454 ng/mL and the level at 24 h [3] was 427 ng/mL. It also gave a level at 120 h [3] of 567 ng/mL, a Cmin (male rats, 1.80 mg total dose) of 62.3 ng/mL and a Cmin (male rats, 3.60 mg total dose) of 167 ng/mL. The “maximum tolerated dose for prolonged subcutaneous administration” value (male rats) was “above 1300 ng/kg·min”, the Tmax (male, Sprague Dawley, rat, in vivo, sc, Tmax) was 81.3 h and the “clinical signs of toxicity” value (rat, in vivo) was “None of the animals in Groups 1-3 showed clinical signs of toxicity”. For the same sequence, the “plasma concentration up to which no toxicity issues were shown” value (rat, in vivo, sc) was “approx. 740 ng/mL”, the “AUCτ of Group 3 females compared to Group 3 males” value (rats, 3.60 mg, similar when normalized to weight) was “up to 2 fold” and the “clinical observations, body weight gain, food consumption” value (rats, 5-day dosing period) was “no remarkable clinical observations, effects on body weight gain or effects on food consumption”. The survival (rats, Groups 1-3) was “all animals survived until euthanasia”.
